Publication PMC11457865, “The HIV latency reversing agent HODHBt inhibits the phosphatases PTPN1 and PTPN2” (JCI Insight, 2024)

Experiments:
PTPN2 (TC-PTP) = target: T1, PTPN2 (TC-PTP) (Homo sapiens, UniProt P17706); assay: fluorogenic phosphatase assay with Lineweaver-Burk kinetics; also CETSA on purified catalytic domain (destabilization), CD4 T cell lysates, and TPP in live PBMCs and K562 cells; assay type: biochemical
T1 construct: catalytic domain (recombinant GST-tag TC-PTP, BPS Bioscience 30013)
T1 sequence (P17706 1-317 limits assumed): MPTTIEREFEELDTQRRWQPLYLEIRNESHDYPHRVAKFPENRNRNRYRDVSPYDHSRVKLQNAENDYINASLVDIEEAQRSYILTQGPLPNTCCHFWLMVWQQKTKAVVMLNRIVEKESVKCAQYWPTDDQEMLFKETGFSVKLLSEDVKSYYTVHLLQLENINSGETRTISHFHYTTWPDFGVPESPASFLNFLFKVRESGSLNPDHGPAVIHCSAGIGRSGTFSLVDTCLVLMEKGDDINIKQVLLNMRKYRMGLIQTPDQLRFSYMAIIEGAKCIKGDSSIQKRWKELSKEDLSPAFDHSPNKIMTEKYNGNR

PTPN1 (PTP1B) = target: T2, PTPN1 (PTP1B) (Homo sapiens, UniProt P18031); assay: fluorogenic phosphatase assay with Lineweaver-Burk kinetics; also CETSA on purified catalytic domain, CD4 T cell lysates, and TPP in live PBMCs and K562 cells; assay type: biochemical
T2 construct: catalytic domain (fluorogenic PTP1B catalytic domain assay kit, BPS Bioscience 79764; purified catalytic domain 1-301 for CETSA)
T2 sequence (P18031 1-301): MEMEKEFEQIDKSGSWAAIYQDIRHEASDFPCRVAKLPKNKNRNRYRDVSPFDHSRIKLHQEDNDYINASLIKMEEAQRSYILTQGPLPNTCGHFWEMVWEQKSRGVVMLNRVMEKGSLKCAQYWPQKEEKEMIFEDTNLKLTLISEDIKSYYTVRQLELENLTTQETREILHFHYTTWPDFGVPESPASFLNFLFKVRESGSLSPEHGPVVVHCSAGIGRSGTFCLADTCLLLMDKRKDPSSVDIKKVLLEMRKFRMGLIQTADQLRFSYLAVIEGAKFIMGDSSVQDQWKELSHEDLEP

**Q.** With `O=c1c2ccccc2nnn1O` [HODHBt, 3-Hydroxy-1,2,3-benzotriazin-4(3H)-one] as the compound, how does the IC50 (PTPN2 (TC-PTP)) read?
**A.** 544 µM

**Q.** And the IC50 (PTPN1 (PTP1B))?
**A.** 601 µM
